Reference: ChEMBL document CHEMBL3991601, “The target landscape of clinical kinase drugs” (Science, 2017)
The source made the active and inactive calls. Cut-off read from the data, not from the text of the source, for most assays here: actives have a measured Kd and inactives only a lower limit.

Columns and labels:
[1] = molecular target: T1, Very long-chain specific acyl-CoA dehydrogenase, mitochondrial (Homo sapiens, UniProt P49748)
T1 sequence (P49748 whole entry): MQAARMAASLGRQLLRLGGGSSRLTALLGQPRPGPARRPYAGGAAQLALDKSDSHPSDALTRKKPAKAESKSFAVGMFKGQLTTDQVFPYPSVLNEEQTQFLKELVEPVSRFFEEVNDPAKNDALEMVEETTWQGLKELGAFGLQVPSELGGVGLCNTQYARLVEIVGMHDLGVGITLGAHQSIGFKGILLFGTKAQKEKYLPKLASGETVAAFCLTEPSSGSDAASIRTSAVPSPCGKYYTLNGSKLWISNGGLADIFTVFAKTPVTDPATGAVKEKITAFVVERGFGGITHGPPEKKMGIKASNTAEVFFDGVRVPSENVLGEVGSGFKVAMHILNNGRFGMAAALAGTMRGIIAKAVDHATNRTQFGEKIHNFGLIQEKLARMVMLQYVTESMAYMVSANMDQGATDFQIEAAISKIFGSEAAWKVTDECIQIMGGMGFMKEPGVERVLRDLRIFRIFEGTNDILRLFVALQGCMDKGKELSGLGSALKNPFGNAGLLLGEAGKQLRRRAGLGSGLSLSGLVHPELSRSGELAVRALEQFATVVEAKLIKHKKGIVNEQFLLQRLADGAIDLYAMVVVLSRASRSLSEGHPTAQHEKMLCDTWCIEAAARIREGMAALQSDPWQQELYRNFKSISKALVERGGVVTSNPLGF

[2] = molecular target: T2, Peroxisomal acyl-coenzyme A oxidase 1 (Homo sapiens, UniProt Q15067)
T2 sequence (Q15067 whole entry): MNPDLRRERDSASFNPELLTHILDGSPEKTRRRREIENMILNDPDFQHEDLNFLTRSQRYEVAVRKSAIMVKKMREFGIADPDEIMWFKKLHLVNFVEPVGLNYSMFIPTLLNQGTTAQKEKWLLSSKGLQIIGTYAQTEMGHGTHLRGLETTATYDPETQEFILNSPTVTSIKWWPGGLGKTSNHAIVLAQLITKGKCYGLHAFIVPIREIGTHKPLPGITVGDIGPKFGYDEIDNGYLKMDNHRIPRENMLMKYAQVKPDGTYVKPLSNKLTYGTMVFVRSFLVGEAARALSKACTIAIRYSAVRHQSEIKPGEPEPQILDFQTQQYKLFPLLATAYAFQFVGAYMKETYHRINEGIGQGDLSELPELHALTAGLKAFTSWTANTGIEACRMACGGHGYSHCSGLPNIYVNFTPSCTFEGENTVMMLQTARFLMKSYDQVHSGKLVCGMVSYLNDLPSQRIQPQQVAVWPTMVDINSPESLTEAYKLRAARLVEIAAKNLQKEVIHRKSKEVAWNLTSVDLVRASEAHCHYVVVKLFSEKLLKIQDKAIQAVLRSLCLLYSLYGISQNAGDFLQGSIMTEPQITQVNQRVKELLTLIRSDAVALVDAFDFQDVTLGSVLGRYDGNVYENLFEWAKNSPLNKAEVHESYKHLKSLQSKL

Deoxycytidine kinase = Deoxycytidine kinase (Homo sapiens, UniProt P27707)
[3] = molecular target: Epithelial discoidin domain-containing receptor 1 (Homo sapiens, UniProt Q08345)
[4] = molecular target: T3, Serine/threonine-protein kinase ICK (Homo sapiens, UniProt Q9UPZ9)
T3 sequence (Q9UPZ9 whole entry): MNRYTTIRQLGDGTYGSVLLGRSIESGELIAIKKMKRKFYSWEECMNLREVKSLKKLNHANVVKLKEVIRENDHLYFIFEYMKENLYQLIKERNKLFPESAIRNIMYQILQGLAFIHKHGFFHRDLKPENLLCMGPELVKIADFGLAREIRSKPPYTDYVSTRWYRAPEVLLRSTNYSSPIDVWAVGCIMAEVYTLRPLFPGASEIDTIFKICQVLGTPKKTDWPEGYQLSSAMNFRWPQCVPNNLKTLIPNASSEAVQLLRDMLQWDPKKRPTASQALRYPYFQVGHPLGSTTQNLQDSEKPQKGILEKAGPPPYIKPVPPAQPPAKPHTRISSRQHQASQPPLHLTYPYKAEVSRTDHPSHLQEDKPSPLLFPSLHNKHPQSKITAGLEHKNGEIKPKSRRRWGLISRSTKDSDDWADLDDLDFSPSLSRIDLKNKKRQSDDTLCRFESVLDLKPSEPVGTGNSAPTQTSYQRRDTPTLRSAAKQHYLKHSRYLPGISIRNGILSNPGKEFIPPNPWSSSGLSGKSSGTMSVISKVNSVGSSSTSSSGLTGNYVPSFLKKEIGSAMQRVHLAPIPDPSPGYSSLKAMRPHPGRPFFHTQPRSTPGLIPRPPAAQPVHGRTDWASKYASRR

[5] = molecular target: Mitogen-activated protein kinase kinase kinase kinase 5 (Homo sapiens, UniProt Q9Y4K4)
[6] = molecular target: MAP kinase-activated protein kinase 2 (Homo sapiens, UniProt P49137)
[7] = molecular target: T4, Phosphorylase b kinase gamma catalytic chain, liver/testis isoform (Homo sapiens, UniProt P15735)
T4 sequence (P15735 whole entry): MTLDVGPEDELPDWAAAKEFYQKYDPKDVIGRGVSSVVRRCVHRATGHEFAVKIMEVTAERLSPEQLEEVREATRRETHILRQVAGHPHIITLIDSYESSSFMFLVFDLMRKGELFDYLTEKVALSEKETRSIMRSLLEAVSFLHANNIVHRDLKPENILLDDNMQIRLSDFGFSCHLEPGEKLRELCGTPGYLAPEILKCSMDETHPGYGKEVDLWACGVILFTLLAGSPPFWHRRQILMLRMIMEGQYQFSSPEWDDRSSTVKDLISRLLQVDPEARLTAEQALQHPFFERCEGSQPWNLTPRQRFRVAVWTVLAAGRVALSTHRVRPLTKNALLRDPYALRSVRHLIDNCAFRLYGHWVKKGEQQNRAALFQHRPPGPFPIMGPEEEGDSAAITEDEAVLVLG
Note: in the data inactive means no Kd found up to 30 µM.

Sequence of Mitogen-activated protein kinase kinase kinase kinase 5 (Q9Y4K4 whole entry): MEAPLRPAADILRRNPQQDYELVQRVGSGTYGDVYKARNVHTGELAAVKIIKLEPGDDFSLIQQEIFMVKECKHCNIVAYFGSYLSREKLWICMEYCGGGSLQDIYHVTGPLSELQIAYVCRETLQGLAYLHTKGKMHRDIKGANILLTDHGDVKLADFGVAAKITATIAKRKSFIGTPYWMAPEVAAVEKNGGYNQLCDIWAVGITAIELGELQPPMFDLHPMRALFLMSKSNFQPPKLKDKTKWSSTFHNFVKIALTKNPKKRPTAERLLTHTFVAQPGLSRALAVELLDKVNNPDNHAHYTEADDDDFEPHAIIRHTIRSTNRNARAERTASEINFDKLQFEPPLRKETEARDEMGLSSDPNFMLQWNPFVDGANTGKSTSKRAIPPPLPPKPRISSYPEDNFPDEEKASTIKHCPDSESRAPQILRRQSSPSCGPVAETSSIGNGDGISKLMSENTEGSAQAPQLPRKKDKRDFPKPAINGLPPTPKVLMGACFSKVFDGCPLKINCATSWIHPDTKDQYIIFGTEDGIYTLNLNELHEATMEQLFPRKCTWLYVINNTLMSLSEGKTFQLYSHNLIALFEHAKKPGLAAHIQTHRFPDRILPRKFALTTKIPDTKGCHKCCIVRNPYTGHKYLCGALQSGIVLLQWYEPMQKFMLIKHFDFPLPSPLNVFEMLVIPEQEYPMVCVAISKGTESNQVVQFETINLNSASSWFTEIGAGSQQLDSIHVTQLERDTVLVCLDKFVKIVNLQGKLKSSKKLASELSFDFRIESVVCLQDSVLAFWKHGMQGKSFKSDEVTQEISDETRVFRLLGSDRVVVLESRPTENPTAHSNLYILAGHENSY
Sequence of MAP kinase-activated protein kinase 2 (P49137 whole entry, canonical isoform): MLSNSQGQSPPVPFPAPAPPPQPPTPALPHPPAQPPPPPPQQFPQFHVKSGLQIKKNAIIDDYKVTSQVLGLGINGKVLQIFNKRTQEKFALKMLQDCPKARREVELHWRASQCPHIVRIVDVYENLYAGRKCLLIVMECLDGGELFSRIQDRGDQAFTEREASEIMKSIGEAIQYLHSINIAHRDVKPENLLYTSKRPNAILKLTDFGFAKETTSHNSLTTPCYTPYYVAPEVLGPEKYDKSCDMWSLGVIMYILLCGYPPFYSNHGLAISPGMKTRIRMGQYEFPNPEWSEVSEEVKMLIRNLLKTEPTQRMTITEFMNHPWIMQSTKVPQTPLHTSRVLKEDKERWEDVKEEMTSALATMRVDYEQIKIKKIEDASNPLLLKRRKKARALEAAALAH
Sequence of Epithelial discoidin domain-containing receptor 1 (Q08345 whole entry, the tested form may be a part): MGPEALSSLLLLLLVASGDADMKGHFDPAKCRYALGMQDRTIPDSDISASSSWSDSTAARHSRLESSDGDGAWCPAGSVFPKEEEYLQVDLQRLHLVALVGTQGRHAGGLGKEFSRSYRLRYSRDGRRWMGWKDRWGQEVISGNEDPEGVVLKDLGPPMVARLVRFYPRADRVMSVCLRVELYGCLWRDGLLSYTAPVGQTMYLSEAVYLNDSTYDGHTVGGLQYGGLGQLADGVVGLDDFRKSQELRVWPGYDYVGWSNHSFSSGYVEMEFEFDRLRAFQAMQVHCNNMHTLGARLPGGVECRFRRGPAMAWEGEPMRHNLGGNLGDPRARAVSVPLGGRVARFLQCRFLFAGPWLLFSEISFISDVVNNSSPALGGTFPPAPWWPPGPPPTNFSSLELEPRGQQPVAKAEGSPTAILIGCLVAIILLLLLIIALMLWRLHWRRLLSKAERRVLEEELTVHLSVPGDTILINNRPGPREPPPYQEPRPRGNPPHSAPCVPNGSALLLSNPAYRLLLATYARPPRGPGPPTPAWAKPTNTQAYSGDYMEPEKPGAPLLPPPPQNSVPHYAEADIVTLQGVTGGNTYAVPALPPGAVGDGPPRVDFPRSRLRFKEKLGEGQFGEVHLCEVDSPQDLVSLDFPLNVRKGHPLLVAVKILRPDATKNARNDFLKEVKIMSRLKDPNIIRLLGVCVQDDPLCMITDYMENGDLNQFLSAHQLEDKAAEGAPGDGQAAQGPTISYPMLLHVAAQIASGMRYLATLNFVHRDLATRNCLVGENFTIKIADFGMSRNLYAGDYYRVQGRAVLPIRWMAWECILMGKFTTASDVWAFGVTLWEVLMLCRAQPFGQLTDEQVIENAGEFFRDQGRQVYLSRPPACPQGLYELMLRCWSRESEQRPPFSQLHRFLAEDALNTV
Sequence of Deoxycytidine kinase (P27707 whole entry, the tested form may be a part): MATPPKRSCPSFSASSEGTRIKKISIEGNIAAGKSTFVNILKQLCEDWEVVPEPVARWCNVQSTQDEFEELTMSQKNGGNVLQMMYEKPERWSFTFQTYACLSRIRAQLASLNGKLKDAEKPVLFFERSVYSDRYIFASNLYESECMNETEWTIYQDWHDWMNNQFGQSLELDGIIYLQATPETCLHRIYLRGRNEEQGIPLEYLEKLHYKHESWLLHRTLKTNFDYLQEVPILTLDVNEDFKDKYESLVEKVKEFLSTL

| SMILES | Kd [1] | Kd [2] | Kd (Deoxycytidine kinase) | Kd [3] | Kd [4] | Kd [5] | Kd [6] | Kd [7] |
| --- | --- | --- | --- | --- | --- | --- | --- | --- |
| CC(C)CC(=O)Nc1[nH]nc2c1CN(C(=O)C1CCN(C)CC1)C2(C)C [PHA-793887] | > 30 µM (inactive) | > 30 µM (inactive) | > 30 µM (inactive) | > 30 µM (inactive) | > 30 µM (inactive) | > 30 µM (inactive) | > 30 µM (inactive) | 1 µM (active) |
| CC1(COc2ccc3c(c2)ncn3-c2ccc3cccc(N4CCC(N)CC4)c3n2)COC1 [CRENOLANIB] | > 30 µM (inactive) | > 30 µM (inactive) | > 30 µM (inactive) | > 30 µM (inactive) | > 30 µM (inactive) | 0.455 µM (active) | > 30 µM (inactive) | 5.02 µM (active) |
| COCCN1CCN(Cc2ccc(-c3n[nH]c4c3C(=O)c3c(NC(=O)NN5CCOCC5)cccc3-4)cc2)CC1 [RGB-286638] | > 30 µM (inactive) | > 30 µM (inactive) | > 30 µM (inactive) | > 30 µM (inactive) | 0.008 µM (active) | > 30 µM (inactive) | > 30 µM (inactive) | > 30 µM (inactive) |
| CC[C@@](C)(Nc1ccnc(-c2c[nH]c3ncccc23)n1)C(=O)NCC(F)(F)F [DECERNOTINIB] | > 30 µM (inactive) | > 30 µM (inactive) | > 30 µM (inactive) | > 30 µM (inactive) | > 30 µM (inactive) | > 30 µM (inactive) | > 30 µM (inactive) | > 30 µM (inactive) |
| CCc1cc2c(cc1N1CCC(N3CCOCC3)CC1)C(C)(C)c1[nH]c3cc(C#N)ccc3c1C2=O [ALECTINIB] | > 30 µM (inactive) | 0.271 µM | > 30 µM (inactive) | > 30 µM (inactive) | > 30 µM (inactive) | > 30 µM (inactive) | > 30 µM (inactive) | 1.71 µM (active) |
| COc1cc(Nc2ncc(F)c(Nc3ccc4c(n3)N(COP(=O)(O)O)C(=O)C(C)(C)O4)n2)cc(OC)c1OC [FOSTAMATINIB] | > 30 µM (inactive) | > 30 µM (inactive) | > 30 µM (inactive) | > 30 µM (inactive) | > 30 µM (inactive) | > 30 µM (inactive) | > 30 µM (inactive) | > 30 µM (inactive) |
| Cc1ccc(C(=O)Nc2ccc(Oc3cc4cnn(C)c4cc3-c3cn[nH]c3)c(F)c2)c(=O)n1-c1ccc(F)cc1 [MERESTINIB] | > 30 µM (inactive) | > 30 µM (inactive) | > 30 µM (inactive) | 0.174 µM (active) | > 30 µM (inactive) | > 30 µM (inactive) | > 30 µM (inactive) | > 30 µM (inactive) |
| COc1cc2nccc(Oc3ccc(NC(=O)C4(C(=O)Nc5ccc(F)cc5)CC4)cc3)c2cc1OC [CABOZANTINIB] | > 30 µM (inactive) | > 30 µM (inactive) | > 30 µM (inactive) | 0.209 µM (active) | > 30 µM (inactive) | > 30 µM (inactive) | > 30 µM (inactive) | > 30 µM (inactive) |
| COc1ccc(-c2ccc3ncc4c(c3c2)n(-c2ccc(N3CCNCC3)c(C(F)(F)F)c2)c(=O)n4C)cn1 [BGT-226 FREE BASE] | > 30 µM (inactive) | > 30 µM (inactive) | > 30 µM (inactive) | > 30 µM (inactive) | > 30 µM (inactive) | > 30 µM (inactive) | > 30 µM (inactive) | > 30 µM (inactive) |

Now from value to molecule:

| Kd [1] | Kd [2] | Kd (Deoxycytidine kinase) | Kd [3] | Kd [4] | Kd [5] | Kd [6] | Kd [7] | SMILES |
| --- | --- | --- | --- | --- | --- | --- | --- | --- |
| > 30 µM (inactive) | > 30 µM (inactive) | > 30 µM (inactive) | > 30 µM (inactive) | > 30 µM (inactive) | > 30 µM (inactive) | 0.934 µM (active) | > 30 µM (inactive) | O[C@H]1CC[C@H](Nc2ncc3nc(Nc4c(F)cc(F)cc4F)n([C@H]4CCOC4)c3n2)CC1 [TANZISERTIB] |
| > 30 µM (inactive) | > 30 µM (inactive) | > 30 µM (inactive) | 1.73 µM | > 30 µM (inactive) | > 30 µM (inactive) | > 30 µM (inactive) | > 30 µM (inactive) | Cc1cc(-c2cc(OC(=O)c3ccccc3)ccc2Cl)cc2nnc(Nc3ccc(OCCN4CCCC4)cc3)nc12 [TG100-801] |
| > 30 µM (inactive) | > 30 µM (inactive) | > 30 µM (inactive) | > 30 µM (inactive) | > 30 µM (inactive) | > 30 µM (inactive) | > 30 µM (inactive) | > 30 µM (inactive) | FC(F)(F)c1ccc(CNc2ccc(Cc3c[nH]c4ncc(Cl)cc34)cn2)cn1 [PEXIDARTINIB] |
| > 30 µM (inactive) | > 30 µM (inactive) | > 30 µM (inactive) | > 30 µM (inactive) | > 30 µM (inactive) | > 30 µM (inactive) | > 30 µM (inactive) | > 30 µM (inactive) | Cn1c(=O)c(F)c(Nc2ccc(I)cc2F)c2c(=O)n(C[C@@H](O)CO)cnc21 [TAK-733] |
| > 30 µM (inactive) | > 30 µM (inactive) | > 30 µM (inactive) | > 30 µM (inactive) | > 30 µM (inactive) | > 30 µM (inactive) | > 30 µM (inactive) | > 30 µM (inactive) | C=CC(=O)Nc1cccc(Nc2nc(Nc3ccc(N4CCN(C(C)=O)CC4)cc3OC)ncc2C(F)(F)F)c1 [ROCILETINIB] |
| > 30 µM (inactive) | > 30 µM (inactive) | > 30 µM (inactive) | > 30 µM (inactive) | > 30 µM (inactive) | > 30 µM (inactive) | > 30 µM (inactive) | > 30 µM (inactive) | COc1cccc2cc(-c3nc([C@H]4CC[C@H](C(=O)O)CC4)n4ncnc(N)c34)[nH]c12 [OSI-027] |
| > 30 µM (inactive) | > 30 µM (inactive) | > 30 µM (inactive) | > 30 µM (inactive) | > 30 µM (inactive) | > 30 µM (inactive) | > 30 µM (inactive) | > 30 µM (inactive) | O=C(NOC[C@H](O)CO)c1ccc(F)c(F)c1Nc1ccc(I)cc1F [MIRDAMETINIB] |
| > 30 µM (inactive) | > 30 µM (inactive) | > 30 µM (inactive) | > 30 µM (inactive) | > 30 µM (inactive) | > 30 µM (inactive) | > 30 µM (inactive) | > 30 µM (inactive) | C[C@@H]1COC(Nc2ccc3ncnc(Nc4ccc(OCc5nccs5)c(Cl)c4)c3c2)=N1 [VARLITINIB] |
